The term IC50 denotes the concentration at which inhibition is half-maximal. A higher IC50 goes with a need for much substance.

Molecules are shown by their SMILES.

37 compounds from US12643858B2 (Inipharm, Inc., priority 2020, dated 2026) can be followed below.

The test has as its target T1, HSD17B13 enzyme (Homo sapiens, UniProt Q7Z5P4).
T1 construct: His; made in house; host or cells: E. coli
T1 sequence (Q7Z5P4 20-300): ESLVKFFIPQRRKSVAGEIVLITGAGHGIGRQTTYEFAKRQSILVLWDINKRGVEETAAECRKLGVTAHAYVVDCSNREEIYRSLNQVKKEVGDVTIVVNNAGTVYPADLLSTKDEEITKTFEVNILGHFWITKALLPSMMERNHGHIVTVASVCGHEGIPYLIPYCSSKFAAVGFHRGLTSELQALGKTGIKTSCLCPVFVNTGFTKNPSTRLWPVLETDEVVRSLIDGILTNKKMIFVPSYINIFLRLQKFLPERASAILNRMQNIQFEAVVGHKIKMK
Nature of the test: NADH detection assay (fluorescence based LTB3 assay) for HSD17B13 activity. It is filed as biochemical. The conditions noted are these: substrate 25 μM LTB3, 3 mM NAD+, 125 nM HSD17B13 enzyme, 1 hour at 26.5° C. How it is done: Example A: NADH Detection Assay for Evaluation of HSD17ß13 Activity and Identification of Inhibitors
The fluorescence based Leukotriene B3 (LTB3) assay monitors the fluorescence of NADH, which is generated from NAD+ during the dehydrogenation of the substrate LTB3. The reactions were performed in a 384-well plates (Greiner; #655076) in a 20 μl reaction volume containing the following reagents (final concentrations): 25 μM LTB3 (Cayman; #20109); 3 mM NAD+ (Sigma; #N0623); 125 nM HSD17B13 enzyme (in-house; E. coli expressed His-tagged, purified, soluble protein); […] potassium phosphate buffer, pH 7.4; and 1% DMSO. Reactions were initiated by co-addition of NAD+ and enzyme, and monitored for 1 hour at 26.5° C. Generation of NADH was measured as the fluorescence signal (Excitation at 340 nm and Emission at 445 nm) at 1 hour minus the baseline fluorescence at t=0. Fluorescence signals in the absence of LTB3 (negative control values), were subtracted from all values so that the results reflected substrate-dependent production of NADH. NADH standards were included to allow the conversion of relative fluorescence units into rates of enzyme activity. Enzyme activity in the presence of test compounds was expressed as a percentage of the uninhibited enzyme activity, and plotted versus inhibitor concentration. Non-linear regression was performed using a four-parameter logistic model and GraphPad Prism software (GraphPad Software, La Jolla, CA). Ten concentrations of inhibitor were tested (in the range of 30 μM-2.5 nM), and two independent assessments were performed at each concentration.
`O=S(=O)(c1ccc(F)c(O)c1)c1cccc(-c2cccc(O)c2F)n1` [Example 55, 2-fluoro-3-[6-(4-fluoro-3-hydroxybenzenesulfonyl)pyridin-2-yl]phenol] gave a half-maximal inhibitory concentration (IC50) of 5 to 10 µM.

`COc1cc(Oc2ccnc(-c3cccc(O)c3F)n2)ccc1F` [Example 16, 2-fluoro-3-[4-(4-fluoro-3-methoxyphenoxy)pyrimidin-2-yl]phenol]: the half-inhibitory concentration (IC50) was greater than 30 µM. On to `COc1cccc(-c2cccc(Oc3ccc(F)c(C(F)F)c3)n2)c1F` [Example 52, 2-[3-(difluoromethyl)-4-fluorophenoxy]-6-(2-fluoro-3-methoxyphenyl) pyridine], for which the IC50 is greater than 30 µM. `O=c1ccc(-c2cccc(Oc3ccc(F)c(O)c3)n2)cn1C(F)F` [Example 73, 1′-(difluoromethyl)-6-(4-fluoro-3-hydroxyphenoxy)-[2,3′-bipyridin]-6′(1′H)-one] returned a 50% inhibitory concentration (IC50) greater than 30 µM. Regarding `O=S(=O)(Nc1cccc(-c2cccc(Oc3ccc(F)c(O)c3)n2)c1F)C1CC1` [Example 114, N-{2-fluoro-3-[6-(4-fluoro-3-hydroxyphenoxy)pyridin-2-yl]phenyl} cyclopropanesulfonamide], the IC50 fell in the range of 5 to 10 µM.

The compound `Oc1cc(Oc2cccc(-c3ccc(OCc4ccccc4)c(F)c3)n2)ccc1F` [Example 34, 5-({6-[4-(benzyloxy)-3-fluorophenyl]pyridin-2-yl}oxy)-2-fluorophenol] had a 50% inhibitory concentration (IC50) greater than 30 µM. For `Oc1cc(Oc2cccc(-c3ccc4c(c3)OCO4)n2)ccc1F` [Example 67, 5-((6-(benzo[d][1,3]dioxol-5-yl)pyridin-2-yl)oxy)-2-fluorophenol], the concentration for half-maximal inhibition (IC50) was no more than 5 µM. For `Oc1cc(Oc2cccc(-c3ccc(C(F)(F)F)cc3)n2)ccc1F` [Example 98, 2-fluoro-5-((6-(4-(trifluoromethyl)phenyl)pyridin-2-yl)oxy)phenol], the IC50 was 10 to 30 µM. `CNC(=O)c1cc(Oc2ccc(F)c(OC)c2)nc(-c2cccc(O)c2F)c1` [Example 70, 2-(2-fluoro-3-hydroxyphenyl)-6-(4-fluoro-3-methoxyphenoxy)-N-methylpyridine-4-carboxamide] yielded an IC50 greater than 30 µM. For `Oc1cc(Oc2cccc(-c3cccc(C(F)(F)F)c3)n2)ccc1F` [Example 103, 2-fluoro-5-((6-(3-(trifluoromethyl)phenyl)pyridin-2-yl)oxy)phenol], the IC50 lay within 5 to 10 µM.

Compound `CC(=O)N1CCN(S(=O)(=O)c2cccc(-c3cccc(Oc4ccc(F)c(O)c4)n3)c2)CC1` [Example 42, 1-(4-{3-[6-(4-fluoro-3-hydroxyphenoxy)pyridin-2-yl]benzenesulfonyl}piperazin-1-yl)ethan-1-one] yielded an IC50 greater than 30 µM. With `Oc1cccc(-c2cccc(Oc3ccc4cn[nH]c4c3)n2)c1F` [Example 4, 6-((6-(2-fluoro-3-methoxyphenyl)pyridin-2-yl)oxy)-1H-indazole and 3-(6-((1H-indazol-6-yl)oxy)pyridin-2-yl)-2 fluorophenol], the IC50 was no more than 5 µM. The compound `Nc1nc2cc(-c3cccc(Oc4ccc(F)c(O)c4)n3)ccc2s1` [Example 47, 5-((6-(2-aminobenzo[d]thiazol-5-yl)pyridin-2-yl)oxy)-2-fluorophenol] registered an IC50 of no more than 5 µM. Consider `O=C(NC1CC1)c1cccc(-c2cccc(Oc3ccc(F)c(O)c3)n2)c1` [Example 63, N-cyclopropyl-3-(6-(4-fluoro-3-hydroxyphenoxy)pyridin-2-yl)benzamide], for which the 50% inhibitory concentration (IC50) is 10 to 30 µM. Regarding `Oc1cc(Oc2nccc(-c3cccc(O)c3F)n2)ccc1F` [Example 11, 2-fluoro-3-[2-(4-fluoro-3-hydroxyphenoxy)pyrimidin-4-yl]phenol], the IC50 lay within 10 to 30 µM.

On to `CC(=O)Nc1nc2cc(-c3cccc(Oc4ccc(F)c(O)c4)n3)ccc2[nH]1` [Example 26, N-(5-(6-(4-fluoro-3-hydroxyphenoxy)pyridin-2-yl)-1H-benzo [d]imidazol-2-yl)acetamide], for which the half-inhibitory concentration (IC50) was no more than 5 µM. Regarding `Oc1cc(Oc2cccc(-c3cccc(F)c3O)n2)ccc1F` [Example 38, 2-fluoro-5-((6-(3-fluoro-2-hydroxyphenyl)pyridin-2-yl)oxy)phenol], the half-maximal inhibitory concentration (IC50) was greater than 30 µM. On to `Oc1cc(Sc2cccc(-c3cccc(O)c3F)n2)ccc1F` [Example 15, 2-fluoro-3-(6-((4-fluoro-3-hydroxyphenyl)thio)pyridin-2-yl) phenol], for which the half-maximal inhibitory concentration (IC50) is no more than 5 µM. As to `CS(=O)(=O)c1cccc(-c2cccc(Oc3ccc(F)c(O)c3)n2)c1` [Example 75, 2-fluoro-5-((6-(3-(methylsulfonyl)phenyl)pyridin-2-yl)oxy)phenol], the half-maximal inhibitory concentration (IC50) is greater than 30 µM. The compound `N#Cc1ccc(Oc2ccc(F)c(O)c2)nc1N1CCOCC1` [Example 62, 6-(4-fluoro-3-hydroxyphenoxy)-2-(morpholin-4-yl)pyridine-3-carbonitrile] registered a 50% inhibitory concentration (IC50) greater than 30 µM. The value for `O=S(=O)(Nc1cccc(-c2cccc(Oc3ccc(F)c(O)c3)n2)c1)c1ccccc1` [Example 18, N-(3-(6-(4-fluoro-3-hydroxyphenoxy)pyridin-2-yl)phenyl) benzenesulfonamide] was no more than 5 µM; that for `Oc1cccc(-c2cccc(Oc3ccc4c(c3)NCCO4)n2)c1F` [Example 56, 3-[6-(3,4-dihydro-2H-1,4-benzoxazin-6-yloxy)pyridin-2-yl]-2-fluorophenol] was greater than 30 µM. Take `Oc1cc(Oc2cccc(-c3ccc(OCc4ccccc4)cc3)n2)ccc1F` [Example 12, 5-((6-(4-(benzyloxy)phenyl)pyridin-2-yl)oxy)-2-fluorophenol]: the IC50 is no more than 5 µM. As for `Oc1cccc(-c2cccc(Oc3ccc(F)c(O)c3)n2)c1` [Example 97, 2-fluoro-5-{[6-(3-hydroxyphenyl)pyridin-2-yl]oxy}phenol], the figure is 10 to 30 µM. The compound `Oc1cc(Oc2cccc(-c3cccs3)n2)ccc1F` [Example 8, 2-fluoro-5-((6-(thiophen-2-yl)pyridin-2-yl)oxy) phenol] showed an IC50 of 5 to 10 µM. The compound `CC(=O)N1CCOc2cc(-c3cccc(Oc4ccc(F)c(O)c4)n3)ccc21` [Example 46, 1-{7-[6-(4-fluoro-3-hydroxyphenoxy)pyridin-2-yl]-3,4-dihydro-2H-1,4-benzoxazin-4-yl}ethan-1-one] had a 50% inhibitory concentration (IC50) of no more than 5 µM.

Take `Oc1cc(Oc2cccc(-c3ccc(C(F)(F)F)c(Cl)c3)n2)ccc1F` [Example 100, 5-((6-(3-chloro-4-(trifluoromethyl)phenyl)pyridin-2-yl)oxy)-2-fluorophenol]: the IC50 was in the range of 10 to 30 µM. As for `Oc1cc(Oc2cccc(N3CCOCC3)n2)ccc1F` [Example 72, 2-fluoro-5-{[6-(morpholin-4-yl)pyridin-2-yl]oxy}phenol], the IC50 was greater than 30 µM. Turning to `Oc1cc(Oc2cccc(-c3cc(F)ccc3F)n2)ccc1F` [Example 88, 5-{[6-(2,5-difluorophenyl)pyridin-2-yl]oxy}-2-fluorophenol], the IC50 is no more than 5 µM. Compound `CN1C(=O)COc2cc(-c3cccc(Oc4ccc(F)c(O)c4)n3)ccc21` [Example 53, 7-(6-(4-fluoro-3-hydroxyphenoxy)pyridin-2-yl)-4-methyl-2H-benzo[b][1,4]oxazin-3(4H)-one] displayed a half-inhibitory concentration (IC50) of no more than 5 µM. The value for `Oc1cc(Oc2cccc(-c3c(F)cccc3F)n2)ccc1F` [Example 78, 5-((6-(2,6-difluorophenyl)pyridin-2-yl)oxy)-2-fluorophenol] was 5 to 10 µM; that for `Oc1cc(Oc2cccc(-c3ccc(F)c(Cl)c3)n2)ccc1F` [Example 85, 5-{[6-(3-chloro-4-fluorophenyl)pyridin-2-yl]oxy}-2-fluorophenol] was 5 to 10 µM. The compound `O=S(=O)(c1cccc(-c2cccc(Oc3ccc(F)c(O)c3)n2)c1)N1CCOCC1` [Example 44, 2-fluoro-5-((6-(3-(morpholinosulfonyl)phenyl)pyridin-2-yl)oxy)phenol] showed an IC50 of no more than 5 µM. As for `Oc1cc(Oc2cccc(-c3ccc(Cl)c(C(F)(F)F)c3)n2)ccc1F` [Example 101, 5-((6-(4-chloro-3-(trifluoromethyl)phenyl)pyridin-2-yl)oxy)-2-fluorophenol], the figure is 10 to 30 µM; as for `COc1ccc(Oc2cccc(-c3cccc(O)c3F)n2)cc1C(=O)O` [Example 35, 5-((6-(2-fluoro-3-hydroxyphenyl)pyridin-2-yl)oxy)-2-methoxybenzoic acid], greater than 30 µM; as for `O=c1[nH]c2ccc(-c3cccc(Oc4ccc(F)c(O)c4)n3)cc2[nH]1` [Example 58, 5-(6-(4-fluoro-3-hydroxyphenoxy)pyridin-2-yl)-1,3-dihydro-2H-benzo[d]imidazol-2-one], no more than 5 µM. `Oc1cc(Oc2cccc(-c3ccc4c(c3)NCCO4)n2)ccc1F` [Example 59, 5-((6-(3,4-dihydro-2H-benzo[b][1,4]oxazin-6-yl)pyridin-2-yl)oxy)-2-fluorophenol] registered a 50% inhibitory concentration (IC50) of no more than 5 µM.
